Assay [1] concerns Eschericia coli (E. Coli) strain ATCC25922. As to the kind of experiment: standard microdilution assay, minimum inhibitory concentration (MIC). The assay is classed as cell-based. Particulars: Escherichia coli; Table 2; strain ATCC25922. On the procedure: (§1) The in vitro activity of the compounds of the present disclosure can be determined. Antimicrobial testing is typically performed to determine the minimum inhibitory concentration (MIC). Minimum inhibitory concentrations (MICs) are determined by the microdilution method in a final volume of 100 μl according to protocols outlined by The Clinical and Laboratory Standards Institute (CLSI). Performance standards for reference strains are assessed within the same experimental design to maintain quality control. See, for example, Clinical Laboratory Standards Institute: Methods for dilution antimicrobial susceptibility tests for bacteria that grow aerobically M7-A8. Approved Standard-Eighth Edition. Wayne, Pa.: CLSI; December 2008; and Clinical Laboratory Standards Institute: Performance Standards for Antimicrobial Susceptibility Testing M100-S20; Approved Standard-Twentieth Edition. Wayne, Pa.: CLSI; June 2010. The compounds of the present disclosure were tested for antimicrobial activity. The Compounds 1-149 were run against Eschericia coli (E. Coli) strain ATCC25922 and against Staphylococcus aureus (S. aureus) 11540 strain using a standard microdilution assay to determine minimum inhibitory concentrations (MICs). […] It will be recognized by one skilled in the art that the compounds can be assessed against other bacterial organisms and that the presentation of data for activity against Eschericia coli and Staphylococcus aureus are illustrative and in no way is intended to limit the scope of the present disclosure. The compounds of the present disclosure can be assayed against a range of other microorganisms depending upon the performance activity desired to be gathered. Furthermore, the “+” and “−” representation and the selection of a cutoff value of 16 micrograms/mL is also illustrative and in no way is intended to limit the scope of the present disclosure.
(Dilution methods test growth across graded concentrations, often in twofold steps.)

In assay [2] the test system is Staphylococcus aureus (S. aureus) 11540 strain. The assay is described as above. The format is cell-based. Particulars: Table 2, 11540 strain. On the procedure:
as §1

In patent US10947237B2, “Antimicrobial compounds and methods of making and using the same” (BIOVERSYS AG, priority 2015, dated 2021) one finds MIC data, which are given here for 38 compounds.

A value given as a limit tells only on which side of the number the result lay.

The MIC is the least concentration at which growth counts as inhibited. A higher MIC goes with a need for much substance. `CC(=N)NCC[C@H]1CCC[C@H](c2ccc(-n3cc4cc(-c5cc(CCC[C@H](C)N)cc(Cl)c5F)[nH]c4nc3=O)cc2)N1` [Compound 1]: the MIC in assay [1] and in assay [2] was no more than 16 µg/mL each time.
As to `CC1=NCC[C@H]2CCC[C@H](c3ccc(-n4cc5cc(-c6cc(CCC[C@H](C)N)cc(Cl)c6F)[nH]c5nc4=O)cc3)N12` [Compound 2], the MIC in assay [1] and in assay [2] was no more than 16 µg/mL in each case.
`C[C@H](N)CCCc1cc(Cl)c(F)c(-c2cc3cn(-c4ccc([C@H]5CCC[C@H](CCNC(=N)c6ccccn6)N5)cc4)c(=O)nc3[nH]2)c1` [Compound 3]: the MIC in assay [1] and in assay [2] was no more than 16 µg/mL in each case.
On to `C[C@H](N)CCCc1cc(Cl)c(F)c(-c2cc3cn(-c4ccc(CN[C@H](CCNC(=N)N)CNC(=N)N)cc4)c(=O)nc3[nH]2)c1` [Compound 4], for which the MIC in assay [1] and in assay [2] was no more than 16 µg/mL in each case.
Regarding `C[C@H](N)CCCc1cc(Cl)c(F)c(-c2cc3cn(-c4ccc([C@@H]5CCC[C@@H](CNCc6cn[nH]c6)N5)cc4)c(=O)nc3[nH]2)c1` [Compound 5], the MIC in assay [1] and in assay [2] was no more than 16 µg/mL in each case.
On to `C[C@H](N)CCCc1cc(Cl)c(F)c(-c2cc3cn(-c4ccc([C@@H]5CCC[C@@H](CNCc6cccnn6)N5)cc4)c(=O)nc3[nH]2)c1` [Compound 6], for which the MIC in assay [1] and in assay [2] was no more than 16 µg/mL in each case.
In the case of `C[C@H](N)CCCc1cc(Cl)c(F)c(-c2cc3cn(-c4ccc(CN[C@H](CCNC(=N)N)Cn5ccc(=O)[nH]c5=O)cc4)c(=O)nc3[nH]2)c1` [Compound 7], the MIC in assay [1] and in assay [2] was no more than 16 µg/mL throughout.
`Cc1cn(CC[C@@H]2CCC[C@@H](c3ccc(-n4cc5cc(-c6cc(CCC[C@H](C)N)cc(Cl)c6F)[nH]c5nc4=O)cc3)N2)c(=O)o1` [Compound 8]: the MIC in assay [1] and in assay [2] was no more than 16 µg/mL in each case.
For `CC(=O)CNCC[C@@H]1CCC[C@@H](c2ccc(-n3cc4cc(-c5cc(CCC[C@H](C)N)cc(Cl)c5F)[nH]c4nc3=O)cc2)N1` [Compound 9], the MIC in assay [1] and in assay [2] was no more than 16 µg/mL each time.
In the case of `C[C@H](N)CCCc1cc(Cl)c(F)c(-c2cc3cn(-c4ccc([C@@H]5CCC[C@@H](Cc6cnc(N)o6)N5)cc4)c(=O)nc3[nH]2)c1` [Compound 10], the MIC in assay [1] and in assay [2] was greater than 16 µg/mL each time.
Consider `Cc1nc[nH]c1CNC[C@@H]1CCC[C@@H](c2ccc(-n3cc4cc(-c5cc(CCC[C@H](C)N)cc(Cl)c5F)[nH]c4nc3=O)cc2)N1` [Compound 11], for which the MIC in assay [1] and in assay [2] was no more than 16 µg/mL each time.
As to `C[C@H](N)CCCc1cc(Cl)c(F)c(-c2cc3cn(-c4ccc([C@@H]5CCC[C@@H](CCNc6ncccn6)N5)cc4)c(=O)nc3[nH]2)c1` [Compound 12], the MIC in assay [1] and in assay [2] was greater than 16 µg/mL throughout.
For `C[C@H](N)CCCc1cc(Cl)c(F)c(-c2cc3cn(-c4ccc(CN[C@@H](CCO)CCNC(=N)N)cc4)c(=O)nc3[nH]2)c1` [Compound 13], the MIC in assay [1] and in assay [2] was no more than 16 µg/mL in each case.
With `Cc1ccnc(NC[C@@H](CCNC(=N)N)NCc2ccc(-n3cc4cc(-c5cc(CCC[C@H](C)N)cc(Cl)c5F)[nH]c4nc3=O)cc2)c1` [Compound 14], the MIC in assay [1] and in assay [2] was no more than 16 µg/mL each time.
`C[C@H](N)CCCc1cc(Cl)c(F)c(-c2cc3cn(-c4ccc(CN[C@H](CCNC(=N)N)CS(N)(=O)=O)cc4)c(=O)nc3[nH]2)c1` [Compound 15]: the MIC in assay [1] and in assay [2] was no more than 16 µg/mL throughout.
As for `C[C@H](N)CCCc1cc(Cl)c(F)c(-c2cc3cn(-c4ccc([C@@H]5CCC[C@@H](CNCc6cc[nH]c(=O)c6)N5)cc4)c(=O)nc3[nH]2)c1` [Compound 16], the MIC in assay [1] and in assay [2] was no more than 16 µg/mL in each case.
For `C[C@H](N)CCCc1cc(Cl)c(F)c(-c2cc3cn(-c4ccc([C@@H]5CCC[C@@H](CCn6ccoc6=O)N5)cc4)c(=O)nc3[nH]2)c1` [Compound 17], the MIC in assay [1] and in assay [2] was no more than 16 µg/mL each time.
In the case of `C[C@H](N)CCCc1cc(Cl)c(F)c(-c2cc3cn(-c4ccc([C@@H]5CCC[C@@H](CNCc6c[nH]nn6)N5)cc4)c(=O)nc3[nH]2)c1` [Compound 18], the MIC in assay [1] and in assay [2] was greater than 16 µg/mL throughout.
On to `C[C@H](N)CCCc1cc(Cl)c(F)c(-c2cc3cn(-c4ccc([C@@H]5CCC[C@@H](CCN6CCOC6=O)N5)cc4)c(=O)nc3[nH]2)c1` [Compound 20], for which the MIC in assay [1] and in assay [2] was greater than 16 µg/mL each time.
Regarding `C[C@H](N)CCCc1cc(Cl)c(F)c(-c2cc3cn(-c4ccc(CN[C@H](CCNC(=N)N)CNc5ccccn5)cc4)c(=O)nc3[nH]2)c1` [Compound 21], the minimum inhibitory concentration (MIC) in assay [1] and in assay [2] was no more than 16 µg/mL throughout.
`C[C@H](N)CCCc1cc(Cl)c(F)c(-c2cc3cn(-c4ccc([C@@H]5CCC[C@@H](C[C@@H](O)c6ccn[nH]6)N5)cc4)c(=O)nc3[nH]2)c1` [Compound 22]: the MIC in assay [1] and in assay [2] was no more than 16 µg/mL in each case.
In the case of `C[C@H](N)CCCc1cc(Cl)c(F)c(-c2cc3cn(-c4ccc([C@@H]5CCC[C@@H](C[C@H](O)c6ccn[nH]6)N5)cc4)c(=O)nc3[nH]2)c1` [Compound 23], the MIC was greater than 16 µg/mL in assay [1] and no more than 16 µg/mL in assay [2].
The corresponding values for `C[C@H](N)CCCc1cc(Cl)c(F)c(-c2cc3cn(-c4ccc(CN[C@H](CCNC(=N)N)CCc5cnc(N)s5)cc4)c(=O)nc3[nH]2)c1` [Compound 24] are no more than 16 µg/mL and no more than 16 µg/mL.
As to `COc1ccc(CNc2ncc(CC[C@@H](CCNC(=N)N)NCc3ccc(-n4cc5cc(-c6cc(CCC[C@H](C)N)cc(Cl)c6F)[nH]c5nc4=O)cc3)s2)cc1` [Compound 25], the MIC in assay [1] and in assay [2] was no more than 16 µg/mL throughout.
Take `C[C@H](N)CCCc1cc(Cl)c(F)c(-c2cc3cn(-c4ccc([C@H]5CCC[C@H](CCNc6ncccn6)N5)cc4)c(=O)nc3[nH]2)c1` [Compound 26]: the values for the MIC in assay [1] and in assay [2] were greater than 16 µg/mL and no more than 16 µg/mL, respectively.
The corresponding values for `C[C@H](N)CCCc1cc(Cl)c(F)c(-c2cc3cn(-c4ccc([C@@H]5CCC[C@@H](CCNC6=NCCC6)N5)cc4)c(=O)nc3[nH]2)c1` [Compound 27] are no more than 16 µg/mL and no more than 16 µg/mL.
The corresponding values for `C[C@H](N)CCCc1cc(Cl)c(F)c(-c2cc3cn(-c4ccc([C@@H]5CCC[C@@H](CCNC(=N)CCCCl)N5)cc4)c(=O)nc3[nH]2)c1` [Compound 28] are no more than 16 µg/mL and no more than 16 µg/mL.
The corresponding values for `C[C@H](N)CCCc1cc(Cl)c(F)c(-c2cc3cn(-c4ccc([C@H]5CCC[C@H](CCNC6=NCCC6)N5)cc4)c(=O)nc3[nH]2)c1` [Compound 29] are no more than 16 µg/mL and no more than 16 µg/mL.
Consider `CCNC[C@@H](CCNC(=N)N)NCc1ccc(-n2cc3cc(-c4cc(CCC[C@H](C)N)cc(Cl)c4F)[nH]c3nc2=O)cc1` [Compound 30], for which the MIC in assay [1] and in assay [2] was no more than 16 µg/mL in each case.
Regarding `C[C@H](N)CCCc1cc(Cl)c(F)c(-c2cc3cn(-c4ccc([C@H]5N[C@H](CCNC(=N)N)CCO5)cc4)c(=O)nc3[nH]2)c1` [Compound 31], the MIC in assay [1] and in assay [2] was no more than 16 µg/mL throughout.
With `C[C@H](N)CCCc1cc(Cl)c(F)c(-c2cc3cn(-c4ccc([C@@H]5N[C@@H](CCNC(=N)N)CCO5)cc4)c(=O)nc3[nH]2)c1` [Compound 32], the MIC in assay [1] and in assay [2] was no more than 16 µg/mL throughout.
As for `C[C@H](N)CCCc1cc(Cl)c(F)c(-c2cc3cn(-c4ccc(CN[C@H](CCNC(=N)N)CNc5ccon5)cc4)c(=O)nc3[nH]2)c1` [Compound 33], the MIC in assay [1] and in assay [2] was no more than 16 µg/mL each time.
As to `C[C@H](N)CCCc1cc(Cl)c(F)c(-c2cc3cn(-c4ccc([C@@H]5CCC[C@@H](CCNC(=N)N)C5)cc4)c(=O)nc3[nH]2)c1` [Compound 34], the MIC in assay [1] and in assay [2] was no more than 16 µg/mL each time.
For the compound `C[C@H](N)CCCc1cc(Cl)c(F)c(-c2cc3cn(-c4ccc([C@H]5CCC[C@H](CCNC(=N)N)C5)cc4)c(=O)nc3[nH]2)c1` [Compound 35], the MIC in assay [1] and in assay [2] was no more than 16 µg/mL throughout.
For `C[C@H](N)CCCc1cc(Cl)c(F)c(-c2cc3cn(-c4ccc(CN[C@H](CCNC(=N)N)CNc5cccc6sccc56)cc4)c(=O)nc3[nH]2)c1` [Compound 36], the MIC in assay [1] and in assay [2] was no more than 16 µg/mL throughout.
Turning to `C[C@H](N)CCCc1cc(Cl)c(F)c(-c2cc3cn(-c4ccc(CN[C@H](CCNC(=N)N)CNc5nc6ccccc6[nH]5)cc4)c(=O)nc3[nH]2)c1` [Compound 37], the MIC in assay [1] and in assay [2] was no more than 16 µg/mL in each case.
Regarding `C[C@H](N)CCCc1cc(Cl)c(F)c(-c2cc3cn(-c4ccc(CN[C@H](CCNC(=N)N)CNc5ncns5)cc4)c(=O)nc3[nH]2)c1` [Compound 38], the MIC in assay [1] and in assay [2] was no more than 16 µg/mL in each case.
Consider `COc1ccc(NC[C@@H](CCNC(=N)N)NCc2ccc(-n3cc4cc(-c5cc(CCC[C@H](C)N)cc(Cl)c5F)[nH]c4nc3=O)cc2)nn1` [Compound 39], for which the MIC in assay [1] and in assay [2] was no more than 16 µg/mL in each case.
